The first series concerns BV-2. Description: Anti-neuroinflammatory activity against mouse BV2 cells assessed as inhibition of LPS-induced nitric oxide production after 24 hrs by Griess assay. The class given is functional, cell-based. The conditions noted are these: BV-2, 24 h.
`COc1cc(O)cc(-c2oc3c(ccc4occc43)c(=O)c2OC)c1`: the half-maximal inhibitory concentration (IC50) was > 100 µM.

Regarding `COc1ccc(-c2coc3c(O)c(O)ccc3c2=O)cc1O`, the IC50 is > 100 µM.

On to `C=C(C)[C@@H]1CC[C@]2(C(=O)O)CC[C@]3(C)[C@H](CC[C@@H]4[C@@]5(C)CCC(=O)C(C)(C)[C@@H]5CC[C@]43C)[C@@H]12` [BETUNOLIC ACID], for which the IC50 was > 100 µM.

With `CC1(C)CC[C@]2(C(=O)O)CC[C@]3(C)[C@H](CC[C@@H]4[C@@]5(C)CC[C@H](O)C(C)(C)[C@@H]5CC[C@]43C)[C@H]2[C@H]1O`, the concentration for half-maximal inhibition (IC50) was 22.7 µM.

With `CN1CC[C@@H](O)C[C@H]1C(=O)O`, the IC50 was > 100 µM.

Turning to `COc1c(-c2ccc3c(c2)OCO3)oc2c(ccc3occc32)c1=O` [PONGAPIN], the IC50 is > 100 µM.

Turning to `CC1(C)C=Cc2c(ccc(C(=O)/C=C/c3ccc4c(c3)OCO4)c2O)O1`, the IC50 stood at 6.56 µM.

`COc1ccc(-c2coc3c(O)c(OC)ccc3c2=O)cc1` [RETUSIN 7-METHYL ETHER]: the IC50 amounted to 50.9 µM.

Consider `COc1c(-c2ccc3c(c2)OCO3)oc2c3c(ccc2c1=O)OC(C)(C)C=C3` [PONGACHROMENE], for which the IC50 was > 100 µM.

Turning to `COc1c(-c2ccccc2)oc2c(ccc3occc32)c1=O` [KARANJIN], the concentration for half-maximal inhibition (IC50) is > 100 µM.

As for `COc1c2ccoc2cc2oc(-c3ccccc3)cc(=O)c12` [PINNATIN], the half-inhibitory concentration (IC50) was > 100 µM.

For `COc1cc(OC)c(Cl)c(-c2cc(=O)c3ccc4occc4c3o2)c1Cl`, the half-inhibitory concentration (IC50) is > 100 µM.

Consider `COc1c2ccoc2cc2oc(-c3ccc4c(c3)OCO4)cc(=O)c12`, for which the IC50 was > 100 µM.

As for `COc1ccc(OC)c(-c2cc(=O)c3ccc4occc4c3o2)c1`, the half-inhibitory concentration (IC50) amounted to 87.7 µM.

Regarding `COc1ccc2c(=O)c(OC)c(-c3ccc(OC)c(OC)c3)oc2c1` [FISETIN TETRAMETHYL ETHER], the 50% inhibitory concentration (IC50) is 28.5 µM.

Turning to `O=c1cc(-c2ccc3c(c2)OCO3)oc2c1ccc1occc12` [PONGAGLABRONE], the half-maximal inhibitory concentration (IC50) came to 45.7 µM.

Take `COc1ccc(-c2coc3c(OC)c(O)ccc3c2=O)cc1`: the IC50 is > 100 µM.

Turning to `COc1ccc(-c2coc3cc(OCC=C(C)C)ccc3c2=O)cc1`, the IC50 was > 100 µM.

With `COc1ccc2c(=O)c(OC)c(-c3cc(OC)c4c(c3)OCO4)oc2c1`, the concentration for half-maximal inhibition (IC50) is > 100 µM.

As for `COc1ccc2c(=O)c(OC)c(-c3ccc4c(c3)OCO4)oc2c1` [DEMETHOXYKANUGIN], the IC50 was determined as 14.1 µM.

In the case of `CC1(C)C=Cc2cc(C(=O)/C=C/c3ccccc3)c(O)cc2O1` [ISOLONCHOCARPIN], the concentration for half-maximal inhibition (IC50) is > 100 µM.

`COc1cccc(-c2cc(=O)c3ccc4occc4c3o2)c1`: the IC50 is > 100 µM.

For the compound `O=c1c(-c2ccc3c(c2)OCO3)coc2cc(O)ccc12` [PSEUDOBAPTOGENIN], the 50% inhibitory concentration (IC50) was > 100 µM.

Turning to `COc1ccc(-c2coc3cc(O)ccc3c2=O)cc1` [FORMONONETIN], the IC50 was > 100 µM.

Turning to `CC1(C)C=Cc2c(ccc(C(=O)/C=C/c3ccccc3)c2O)O1` [LONCHOCARPIN], the half-maximal inhibitory concentration (IC50) is 3.54 µM.

As to `COc1cc2occc2c2oc(-c3ccccc3)cc(=O)c12`, the concentration for half-maximal inhibition (IC50) was 5.98 µM.

With `CC1(C)C=Cc2c(ccc3c2O[C@H](c2ccc4c(c2)OCO4)CC3=O)O1`, the half-maximal inhibitory concentration (IC50) turned out to be 78.8 µM.

`COc1cc(OC)cc(-c2cc(=O)c3ccc4occc4c3o2)c1`: the IC50 is > 100 µM.

Consider `O=c1cc(-c2ccccc2)oc2c1ccc1occc12` [LANCEOLATIN B], for which the IC50 came to 20.6 µM.

Test system in the next series: not listed separately
Description: Cytotoxicity against mouse BV2 cells assessed as reduction of cell viability at IC50 after 24 hrs by MTT assay. The series is classed as cell-based. Conditions: bv-2, 24 h.
For `COc1cc(O)cc(-c2oc3c(ccc4occc43)c(=O)c2OC)c1`, the Activity result is listed as “Non-toxic”.

As to `COc1ccc(-c2coc3c(O)c(O)ccc3c2=O)cc1O`, the Activity entry is on record as “Non-toxic”.

As for `C=C(C)[C@@H]1CC[C@]2(C(=O)O)CC[C@]3(C)[C@H](CC[C@@H]4[C@@]5(C)CCC(=O)C(C)(C)[C@@H]5CC[C@]43C)[C@@H]12` [BETUNOLIC ACID], the Activity entry is “Non-toxic”.

Take `CC1(C)CC[C@]2(C(=O)O)CC[C@]3(C)[C@H](CC[C@@H]4[C@@]5(C)CC[C@H](O)C(C)(C)[C@@H]5CC[C@]43C)[C@H]2[C@H]1O`: the Activity result is recorded as “Non-toxic”.

Regarding `CN1CC[C@@H](O)C[C@H]1C(=O)O`, the Activity entry is “Non-toxic”.

`COc1c(-c2ccc3c(c2)OCO3)oc2c(ccc3occc32)c1=O` [PONGAPIN]: the Activity entry was “Non-toxic”.

Take `CC1(C)C=Cc2c(ccc(C(=O)/C=C/c3ccc4c(c3)OCO4)c2O)O1`: the Activity result is “Non-toxic”.

Regarding `COc1ccc(-c2coc3c(O)c(OC)ccc3c2=O)cc1` [RETUSIN 7-METHYL ETHER], the Activity result is reported as “Non-toxic”.

Consider `COc1c(-c2ccc3c(c2)OCO3)oc2c3c(ccc2c1=O)OC(C)(C)C=C3` [PONGACHROMENE], for which the Activity entry is “Non-toxic”.

With `COc1c(-c2ccccc2)oc2c(ccc3occc32)c1=O` [KARANJIN], the Activity result was “Non-toxic”.

With `COc1c2ccoc2cc2oc(-c3ccccc3)cc(=O)c12` [PINNATIN], the Activity result was “Non-toxic”.

As to `COc1cc(OC)c(Cl)c(-c2cc(=O)c3ccc4occc4c3o2)c1Cl`, the Activity result is reported as “Non-toxic”.

`COc1c2ccoc2cc2oc(-c3ccc4c(c3)OCO4)cc(=O)c12`: the Activity entry is given as “Non-toxic”.

As to `COc1ccc(OC)c(-c2cc(=O)c3ccc4occc4c3o2)c1`, the Activity result is “Non-toxic”.

`COc1ccc2c(=O)c(OC)c(-c3ccc(OC)c(OC)c3)oc2c1` [FISETIN TETRAMETHYL ETHER]: the Activity result is “Non-toxic”.

With `O=c1cc(-c2ccc3c(c2)OCO3)oc2c1ccc1occc12` [PONGAGLABRONE], the Activity entry is on record as “Non-toxic”.

Regarding `COc1ccc(-c2coc3c(OC)c(O)ccc3c2=O)cc1`, the Activity result was “Non-toxic”.

Turning to `COc1ccc(-c2coc3cc(OCC=C(C)C)ccc3c2=O)cc1`, the Activity result is on record as “Non-toxic”.

Regarding `COc1ccc2c(=O)c(OC)c(-c3cc(OC)c4c(c3)OCO4)oc2c1`, the Activity result is on record as “Non-toxic”.

For the compound `COc1ccc2c(=O)c(OC)c(-c3ccc4c(c3)OCO4)oc2c1` [DEMETHOXYKANUGIN], the Activity result is recorded as “Non-toxic”.

With `CC1(C)C=Cc2cc(C(=O)/C=C/c3ccccc3)c(O)cc2O1` [ISOLONCHOCARPIN], the Activity entry is on record as “Non-toxic”.

Turning to `COc1cccc(-c2cc(=O)c3ccc4occc4c3o2)c1`, the Activity result is “Non-toxic”.

Turning to `O=c1c(-c2ccc3c(c2)OCO3)coc2cc(O)ccc12` [PSEUDOBAPTOGENIN], the Activity entry is listed as “Non-toxic”.

As to `COc1ccc(-c2coc3cc(O)ccc3c2=O)cc1` [FORMONONETIN], the Activity entry is “Non-toxic”.

Consider `CC1(C)C=Cc2c(ccc(C(=O)/C=C/c3ccccc3)c2O)O1` [LONCHOCARPIN], for which the Activity result was “Non-toxic”.

For `COc1cc2occc2c2oc(-c3ccccc3)cc(=O)c12`, the Activity result is “Non-toxic”.

For `CC1(C)C=Cc2c(ccc3c2O[C@H](c2ccc4c(c2)OCO4)CC3=O)O1`, the Activity result is recorded as “Non-toxic”.

Regarding `COc1cc(OC)cc(-c2cc(=O)c3ccc4occc4c3o2)c1`, the Activity result is given as “Non-toxic”.

Consider `O=c1cc(-c2ccccc2)oc2c1ccc1occc12` [LANCEOLATIN B], for which the Activity entry was “Non-toxic”.

These data come from ChEMBL document CHEMBL3580603, “Natural therapeutic agents for neurodegenerative diseases from a traditional herbal medicine Pongamia pinnata (L.) Pierre” (Bioorg Med Chem Lett, 2014).
